# In US20220305121A1, “N-ARYL SULFONAMIDE DERIVATIVES AS VACCINE ADJUVANT” (The Regents of the University of California, priority 2019, published 2022):
# Entries after “also recorded” stand apart in the source; their conditions may differ.
# Experiments:
# NF-κB = assay: Measurement of NF-κB activation using THP1-Blue NF-κB cells (SEAP reporter, LPS as primary stimulus); assay type: cell-based; settings: for activity at 5 µM: compound 5 μM + LPS, 20 hour incubation, two point normalized: compound 1 + LPS = 200%, LPS = 100%, mean
# In short: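 THP1-Blue NF-κB cells (10^5/well, RPMI + 10% FBS) were co-treated with LPS 10 μg/mL and compound 5 μM (final, […]) for 20 h. Supernatant SEAP was read by QuantiBlue colorimetry at 630 nm. Two-point normalization set LPS alone to 100% and compound 1+LPS to 200%.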
# NF-κB and ISRE = NF-κB and ISRE reporter assays (primary screens), statements in words for both assays; assay type: cell-based; settings: for activity in NF-κB and ISRE assays (in words): with LPS or IFN-α as primary stimulus, compared to compound 1
# In short: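 Single 5 μM compound (0.05% DMSO). NF-κB: THP1-Blue cells with 10 μg/mL LPS, 20 h, SEAP by absorbance at 630 nm. ISRE: ISRE-bla THP-1 cells with 100 U/mL IFN-α, 16 h, CCF4-AM 465/535 nm ratio. Both normalized to stimulus alone as 100%, compound 1 plus stimulus as 200%.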
# [1] = system: C57BL/6 (wild-type, WT) mice; assay: In vivo adjuvant activity study (ovalbumin + MPLA + compound, OVA-specific IgG by ELISA); settings: coimmunization with MPLA and ovalbumin; for OVA-specific IgG antibody titers: intramuscular, days 0 and 21, compared to MPLA alone
# ISRE = assay: Measurement of ISRE activity in ISRE-bla THP-1 cells (FRET, IFN-α as primary stimulus); assay type: cell-based; settings: Homo sapiens, THP-1; for activity at 5 µM: compound 5 μM + IFN-α 100 U/mL, 16 hours, two point normalized: compound 1 + IFN-α = 200%, IFN-α = 100%, mean, read-out: ISRE % Activation; for EC50: dose response in the presence of IFN-α
# In short: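 Cells at 5×10^4/well in RPMI with 10% dialyzed FBS, treated with compound at 5 μM (0.05% DMSO) plus IFN-α at 100 U/mL (final) for 16 h. CCF4-AM substrate added for 3 h at room temperature. Background-subtracted 465/535 nm emission ratio, 2-point normalized: IFN-α alone 100%, compound 1+IFN-α 200%.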
# THP-1 cells = assay: Cell viability assay (MTT); assay type: cell-based; settings: compound 5 μM, 18 hours incubation; normalized to DMSO as 100%; mean
# In short: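 Cells at 10^5/well in RPMI with 10% FBS were exposed to compound at 5 μM final (0.05% DMSO) for 18 h. MTT (0.5 mg/mL) then added for 4-6 h, cells lysed overnight in SDS/HCl, absorbance read at 570 nm against 650 nm reference.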
# [2] = Stability of compound 48 in DMSO stock and in assay media; assay type: physicochemical
# Experimental: However, before proceeding with syntheses of additional acylated analogs, its stability in stock solutions was evaluated since during the assay this compound could behave as a prodrug by undergoing deacetylation to release active compound 1. […] Thus, syntheses of additional acylated analogs were not pursued.
SMILES,activity at 5 µM (NF-κB),"NF-κB or ISRE activity when tested alone (NF-κB and ISRE; tested alone, without LPS or IFN-α)",activity in NF-κB and ISRE assays (in words) (NF-κB and ISRE),systemic toxicity as indicated by behavior change or weight loss [1],OVA-specific IgG antibody titers [1],activity at 5 µM (ISRE),EC50 (ISRE),MTT % Viability (THP-1 cells),EC50 (NF-κB; dose response in the presence of LPS),"incubation with assay media ([2]; assay media, data not shown)",stability of stock in DMSO ([2]; stock in DMSO)
"CCOc1ccc(S(=O)(=O)Nc2cc(OC)c(Cl)cc2OC)cc1 [Compound 1, N-(4-chloro-2,5-dimethoxyphenyl)-4-ethoxybenzenesulfonamide]",200%,little if any,enhanced their activation; also recorded: retained activity; also recorded: sustained NF-κB and ISRE activation,without demonstrable systemic toxicity,statistically significant increases; also recorded: significant enhancement of antibody titers,200%,660 nM,73.5%,,,
"CCOc1ccc(S(=O)(=O)N(C)c2cc(OC)c(Cl)cc2OC)cc1 [Compound 33, N-(4-chloro-2,5-dimethoxyphenyl)-4-ethoxy-N-methylbenzenesulfonamide]",235%,,equipotent as compound 1,without demonstrable systemic toxicity,statistically significant increases; also recorded: significant enhancement of antibody titers,215%,840 nM,74.5%,690 nM,,
"CCOc1ccc(S(=O)(=O)N(C(C)=O)c2cc(OC)c(Cl)cc2OC)cc1 [Compound 48, N-(4-chloro-2,5-dimethoxyphenyl)-N-((4-ethoxyphenyl)sulfonyl)acetamide]",,,active,,,,,72.0%,,release of compound 1,stable
